This note sets out measurements from patent US20030229067A1, “Pyrrolopyrimidine A2b selective antagonist compounds, their synthesis and use” (priority 2001, published 2003).

The structures appear in SMILES notation.

On to `CC(=O)NCCNc1nc(-c2ccccc2)nc2[nH]c(C(=O)N3C[C@@H](C)NC[C@@H]3C)cc12` (relative stereo) [26.31, N-{2-[6-(trans-2,5-Dimethylpiperazine-1-carbonyl)-2-phenyl-7H-pyrrolo[2,3-d]pyrimidin-4-ylamino]-ethyl}-acetamide], for which the melting point was in the range of 120 to 125 °C. As to `COC(=O)c1cccc(OCc2cc3c(NCCNC(C)=O)nc(-c4ccccc4)nc3[nH]2)c1` [9.19, 3-[4-(2-Acetylaminoethylamino)-2-phenyl-7H-pyrrolo[2,3-d]pyrimidin-6-ylmethoxy]-benzoic acid methyl ester], the melting point was 80 to 85 °C (dec.). Consider `CC(=O)NCCNc1nc(-c2ccccc2)nc2[nH]c(/C=N/OCc3ccccc3)cc12` [22.1, N-{2-[6-(Benzyloxyiminomethyl)-2-phenyl-7H-pyrrolo[2,3-d]pyrimidin-4-ylamino]-ethyl}-acetamide], for which the melting point was 83 to 87 °C (dec.). To `CC(=O)NCCNc1nc(-c2ccccc2)nc2[nH]c(C(=O)N3CCOCC3)cc12` [26.1, N-{2-[6-(Morpholine-4-carbonyl)-2-phenyl-7H-pyrrolo[2,3-d]pyrimidin-4-ylamino]-ethyl}-acetamide] belongs 250 °C.

`CC(=O)NCCNc1nc(-c2ccccc2)nc2[nH]c(C(=O)Nc3ccc(Oc4ccccc4)cc3)cc12` [26.2, 4-(2-Acetylaminoethylamino)-2-phenyl-7H-pyrrolo[2,3-d]pyrimidine-6-carboxylic acid (4-phenoxyphenyl)-amide]: the melting point is 250 to 257 °C (dec.). Turning to `CC(=O)NCCNc1nc(-c2ccccc2)nc2[nH]c(C(=O)N3CCC(O)(C(C)C)CC3)cc12` [26.4, N-{2-[6-(4-Hydroxy4-isopropylpiperidine-1-carbonyl)-2-phenyl-7H-pyrrolo[2,3-d]pyrimidin-4-ylamino]-ethyl}-acetamide], the melting point is 140 to 145 °C (dec.). As for `CC(=O)NCCNc1nc(-c2ccccc2)nc2[nH]c(C(=O)N3CCC(O)(c4ccccc4)CC3)cc12` [26.7, N-{2-[6-(4-Hydroxy4-phenylpiperidine-1-carbonyl)-2-phenyl-7H-pyrrolo[2,3-d]pyrimidin-4-ylamino]-ethyl}-acetamide], the melting point is 158 to 162 °C (dec.). For `CC(=O)NCCNc1nc(-c2ccccc2)nc2[nH]c(C(=O)N3CCC(O)(Cc4ccccc4)CC3)cc12` [26.8, N-{2-[6-(4-Benzyl-4-hydroxypiperidine-1-carbonyl)-2-phenyl-7H-pyrrolo[2,3-d]pyrimidin-4-ylamino]-ethyl}-acetamide], the melting point was 140 to 145 °C (dec.). As to `NC(=O)CNc1nc(-c2ccccc2)nc2[nH]c(C(=O)N3CCC(O)(c4ccc(Cl)cc4)CC3)cc12` [26.9, 2-{6-[4-(4-Chlorophenyl)-4-hydroxypiperidine-1-carbonyl]-2-phenyl-7H-pyrrolo[2,3-d]pyrimidin-4-ylamino}-acetamide], the melting point was 200 to 205 °C (dec.).

`CC(=O)NCCNc1nc(-c2ccccc2)nc2[nH]c(C(=O)N3CCC(O)(c4cccc(C(F)(F)F)c4)CC3)cc12` [26.10] gave a melting point of 145 to 150 °C. In turn, `CC(=O)NCCNc1nc(-c2ccccc2)nc2[nH]c(C(=O)N3CCN(CCc4ccccc4)CC3)cc12` [26.11, N-{2-[6-(4-Phenethylpiperazine-1-carbonyl)-2-phenyl-7H-pyrrolo[2,3-d]pyrimidin-4-ylamino]-ethyl}-acetamide] registered a melting point of 226 to 228 °C. As to `CC(=O)NCCNc1nc(-c2ccccc2)nc2[nH]c(C(=O)N3CCN(CCCN4CCOCC4)CC3)cc12` [26.12, N-(2-{6-[4-(3-Morpholin-4-ylpropyl)-piperazine-1-carbonyl]-2-phenyl-7H-pyrrolo[2,3-d]pyrimidin-4-ylamino}-ethyl)-acetamide], the melting point was 225 to 230 °C (dec.).

As a reminder, the melting point is the temperature of the solid-liquid transition.
